Measurements published in patent US8148370B2, “Polysubstituted derivatives of 2-aryl-6-phenyl-imidazo[1,2-a]pyridines, and preparation and therapeutic use thereof” (Sanofi-Aventis, priority 2008, dated 2012).

Key:
mouse Nurr1 receptor = target: T1, mouse Nurr1 receptor (Mus musculus, UniProt Q06219); test: Evaluation of the in vitro activity on N2A cells (NBRE-luciferase reporter); assay type: cell-based; settings: N2A (Neuro-2A) cells stably transfected with 8NBRE-luciferase; products incubated 24 hours; luminescence
T1 construct: endogenously expressing the mouse Nurr1 receptor; host or cells: Neuro-2A (N2A) mouse neuroblastoma cells stably transfected with 8NBRE-luciferase
Procedure: The compounds according to the invention have formed the subject of pharmacological assays which make it possible to determine their modulatory effect on NOT. Evaluation of the In Vitro Activity on N2A Cells The activity of the compounds according to the invention was evaluated on a cell line (N2A) endogenously expressing the mouse Nurr1 receptor and stably transfected with the NOT binding response element (NBRE) coupled to the luciferase reporter gene. The EC50 values are between 0.01 and 10 μM. The assays were carried out according to the procedure described below. The Neuro-2A cell line comes from a standard commercial source (ATCC). The Neuro-2A clone was obtained, from a spontaneous tumour originating from an A albino mouse strain, by R. J Klebe et al. This Neuro-2A line is subsequently stably transfected with 8NBRE-luciferase. The N2A-8NBRE cells are cultured until confluence in 75 cm^2 culture flasks containing DMEM supplemented with 10% of foetal calf serum, 4.5 g/l of glucose and 0.4 mg/ml of geneticin. After a week of culture, the cells are recovered with 0.25% trypsin for 30 seconds and then resuspended in DMEM without phenol red, containing 4.5 g/l of glucose and 10% of Hyclone delipidized serum, and deposited into transparent-bottom 96-well white plates. The cells are deposited at a rate of 60 000 per well in 75 μl for 24 hours before the addition of the products. The products are applied in 25 μl and incubated for a further 24 hours. On the day of the measurement, an equivalent volume (100 μl) of Steadylite is added to each well and then left for a period of 30 minutes in order to obtain complete cell lysis and maximum signal production. The plates are subsequently measured in a luminescence counter for microplates after having been sealed with an adhesive film. The products are prepared in the form of a stock solution at 10^−2M and then diluted in 100% of DMSO. Each product concentration is prediluted in culture medium before incubation with the cells, thus containing 0.625% final concentration of DMSO. […] It is thus apparent that the compounds according to the invention have a modulatory effect on NOT.

T1 sequence (Q06219 whole entry): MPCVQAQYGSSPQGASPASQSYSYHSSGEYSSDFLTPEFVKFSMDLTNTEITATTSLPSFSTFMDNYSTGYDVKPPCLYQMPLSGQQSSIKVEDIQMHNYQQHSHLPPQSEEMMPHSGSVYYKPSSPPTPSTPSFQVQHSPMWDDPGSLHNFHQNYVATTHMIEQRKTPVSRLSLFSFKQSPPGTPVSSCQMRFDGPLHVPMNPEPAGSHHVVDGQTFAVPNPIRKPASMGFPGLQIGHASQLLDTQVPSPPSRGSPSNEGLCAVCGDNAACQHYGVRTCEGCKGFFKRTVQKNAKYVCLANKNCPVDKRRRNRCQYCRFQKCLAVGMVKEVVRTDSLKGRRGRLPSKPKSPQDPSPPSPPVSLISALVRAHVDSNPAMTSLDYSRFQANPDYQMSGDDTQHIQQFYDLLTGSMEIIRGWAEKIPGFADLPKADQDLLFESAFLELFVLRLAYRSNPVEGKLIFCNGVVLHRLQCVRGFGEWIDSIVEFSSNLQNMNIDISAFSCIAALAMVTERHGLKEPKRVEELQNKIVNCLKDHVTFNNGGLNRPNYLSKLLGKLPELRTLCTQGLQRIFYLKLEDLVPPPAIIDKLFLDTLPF

`COc1cccc(-c2cn3cc(-c4cc(C(C)(C)O)ccc4F)ccc3n2)c1` [Compound 33, 2-{4-Fluoro-3-[2-(3-methoxyphenyl)imidazo[1,2-a]pyridin-6-yl]phenyl}propan-2-ol] gave an EC50 (mouse Nurr1 receptor) of 0.025 µM.
`CC(O)c1cccc(-c2ccc3nc(-c4ccc(Cl)cc4)cn3c2)c1F` (centres unmarked) [Compound 2, 1-{3-[2-(4-Chlorophenyl)imidazo[1,2-a]pyridin-6-yl]-2-fluorophenyl}ethanol] gave a melting point of 193 to 195 °C.
In the case of `OC1CCCc2ccc(-c3ccc4nc(-c5ccc(Cl)cc5)cn4c3)cc21` (centres unmarked) [Compound 8, 7-[2-(4-Chlorophenyl)imidazo[1,2-a]pyridin-6-yl]-1,2,3,4-tetrahydronaphth-1-ol], the EC50 (mouse Nurr1 receptor) is reported as 0.042 µM.
Work on `OCc1cc(-c2ccc3nc(-c4ccc(Cl)cc4)cn3c2)ccc1F` [Compound 11, {5-[2-(4-Chlorophenyl)imidazo[1,2-a]pyridin-6-yl]-2-fluorophenyl}methanol] yielded an EC50 (mouse Nurr1 receptor) of 0.0075 µM.
With `O=[N+]([O-])c1ccc(-c2cn3cc(-c4cccc(F)c4CO)ccc3n2)cc1` [Compound 38, {2-Fluoro-6-[2-(4-nitrophenyl)imidazo[1,2-a]pyridin-6-yl]phenyl}methanol] the EC50 (mouse Nurr1 receptor) was 0.211 µM.
Molecule `OCc1c(F)ccc(-c2ccc3nc(-c4ccc(Cl)cc4)cn3c2)c1F` [Compound 3, {3-[2-(4-Chlorophenyl)imidazo[1,2-a]pyridin-6-yl]-2,6-difluorophenyl}methanol] has an EC50 (mouse Nurr1 receptor) of 0.0005 µM and a melting point of 214 to 216 °C.
With `OCc1c(F)ccc(-c2ccc3nc(-c4cccc(Br)c4)cn3c2)c1F` [Compound 42, {3-[2-(3-Bromophenyl)imidazo[1,2-a]pyridin-6-yl]-2,6-difluorophenyl}methanol] the EC50 (mouse Nurr1 receptor) was 0.001 µM.
Molecule `CC(O)c1ccc(F)c(-c2ccc3nc(-c4ccc(Cl)cc4)cn3c2)c1` (single isomer, unassigned; (+)) [Compound 29, (+)-1-{3-[2-(4-Chlorophenyl)imidazo[1,2-a]pyridin-6-yl]-4-fluorophenyl}ethanol] has an EC50 (mouse Nurr1 receptor) of 0.0001 µM.
Molecule `COc1cccc(-c2cn3cc(-c4ccc(CO)c(F)c4)ccc3n2)c1` [Compound 17, {2-Fluoro-4-[2-(3-methoxyphenyl)imidazo[1,2-a]pyridin-6-yl]phenyl}methanol] has an EC50 (mouse Nurr1 receptor) of 0.093 µM.
`COCc1c(F)ccc(-c2ccc3nc(-c4ccc(C)cc4)cn3c2)c1F` [Compound 37, 6-(2,4-Difluoro-3-methoxymethylphenyl)-2-(p-tolyl)imidazo[1,2-a]pyridine] gave an EC50 (mouse Nurr1 receptor) of 0.074 µM.
